Molecules are shown by their SMILES. pIC50: −log10 of the molar value.

Complement factor D, sequence (P00746 whole entry): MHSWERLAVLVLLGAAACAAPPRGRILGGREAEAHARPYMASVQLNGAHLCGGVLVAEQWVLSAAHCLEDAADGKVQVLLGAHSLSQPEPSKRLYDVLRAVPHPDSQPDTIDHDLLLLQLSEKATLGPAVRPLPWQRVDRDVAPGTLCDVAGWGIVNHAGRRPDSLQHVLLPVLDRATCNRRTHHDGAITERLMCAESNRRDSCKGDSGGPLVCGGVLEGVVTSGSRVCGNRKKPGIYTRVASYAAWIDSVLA

This test has as its target Complement factor D (Homo sapiens, UniProt P00746). Description: Human Factor D Assay: Human Factor D (purified from human serum, Complement Technology, Inc.) at 80 nM final concentration is incubated with test compound at various concentrations for 5 min at room temperature in 50 mM Tris, 1M NaCl, pH 7.5. A synthetic substrate Z-L-Lys-SBzl and DTNB (Ellman's reagent) are added to final concentrations of 100 μM each. Absorbance at 405 nm (A405) is recorded at 30 second intervals for 30 min using a microplate spectrophotometer. IC50 values are calculated by nonlinear regression of Complement Factor D reaction rates as a function of test compound concentration.
In the case of `CC(=O)c1nn(CC(=O)N2[C@H](C(=O)Nc3nc(Br)ccc3C)C[C@@]3(C)C[C@@H]23)c2ccc(N)cc12`, the pIC50 is above 6.00.

In the case of `CC(=O)c1nn(CC(=O)N2[C@H](C(=O)Nc3nc(Br)ccc3C)C[C@@]3(C)C[C@@H]23)c2c(C)cccc12`, the pIC50 is above 6.00.

For the compound `CC(=O)c1nn(CC(=O)N2C[C@H](F)C[C@H]2C(=O)Nc2cccc(Br)n2)c2ccc(C3OCC(N)CO3)cc12` (stereo partly specified), the pIC50 was above 6.00.

Turning to `CC(=O)c1nn(CC(=O)N2[C@H](C(=O)Nc3cccc(Br)n3)C[C@@]3(C)C[C@@H]23)c2ccc(NC(=O)N3CCC(F)(F)C3)cc12`, the pIC50 was above 6.00.

On to `CC(=O)c1nn(CC(=O)N2[C@H](C(=O)Nc3nc(Br)ccc3C)C[C@@]3(C)C[C@@H]23)c2ccc(N(C)C)cc12`, for which the pIC50 is above 6.00.

For `CC(=O)c1nn(CC(=O)N2[C@H](C(=O)Nc3cccc(Br)n3)C[C@@]3(C)C[C@@H]23)c2c(C)cccc12`, the pIC50 was above 6.00.

As usually defined, the pIC50 is the negative decadic logarithm of the IC50, by convention in mol/L.

Values taken from ChEMBL document CHEMBL5729318, “Pharmaceutical compounds for treatment of medical disorders” (2022).
